Legend:
PI3Kdelta = PI3Kdelta (Homo sapiens (Human), UniProt O00329); assay: HTRF PI3K biochemical assay, delta isoform; conditions: 0.3 nM enzyme, 100 uM ATP, 50 uM PIP2; form screened (neutral or TFA salt)
PI3Kalpha = PI3Kalpha (Homo sapiens (Human), UniProt P42336); assay: HTRF PI3K biochemical assay, alpha isoform (selectivity versus delta); conditions: ratio PI3K-alpha IC50 value/PI3K-delta IC50 value
Sequence of PI3Kalpha (P42336 whole entry, canonical isoform): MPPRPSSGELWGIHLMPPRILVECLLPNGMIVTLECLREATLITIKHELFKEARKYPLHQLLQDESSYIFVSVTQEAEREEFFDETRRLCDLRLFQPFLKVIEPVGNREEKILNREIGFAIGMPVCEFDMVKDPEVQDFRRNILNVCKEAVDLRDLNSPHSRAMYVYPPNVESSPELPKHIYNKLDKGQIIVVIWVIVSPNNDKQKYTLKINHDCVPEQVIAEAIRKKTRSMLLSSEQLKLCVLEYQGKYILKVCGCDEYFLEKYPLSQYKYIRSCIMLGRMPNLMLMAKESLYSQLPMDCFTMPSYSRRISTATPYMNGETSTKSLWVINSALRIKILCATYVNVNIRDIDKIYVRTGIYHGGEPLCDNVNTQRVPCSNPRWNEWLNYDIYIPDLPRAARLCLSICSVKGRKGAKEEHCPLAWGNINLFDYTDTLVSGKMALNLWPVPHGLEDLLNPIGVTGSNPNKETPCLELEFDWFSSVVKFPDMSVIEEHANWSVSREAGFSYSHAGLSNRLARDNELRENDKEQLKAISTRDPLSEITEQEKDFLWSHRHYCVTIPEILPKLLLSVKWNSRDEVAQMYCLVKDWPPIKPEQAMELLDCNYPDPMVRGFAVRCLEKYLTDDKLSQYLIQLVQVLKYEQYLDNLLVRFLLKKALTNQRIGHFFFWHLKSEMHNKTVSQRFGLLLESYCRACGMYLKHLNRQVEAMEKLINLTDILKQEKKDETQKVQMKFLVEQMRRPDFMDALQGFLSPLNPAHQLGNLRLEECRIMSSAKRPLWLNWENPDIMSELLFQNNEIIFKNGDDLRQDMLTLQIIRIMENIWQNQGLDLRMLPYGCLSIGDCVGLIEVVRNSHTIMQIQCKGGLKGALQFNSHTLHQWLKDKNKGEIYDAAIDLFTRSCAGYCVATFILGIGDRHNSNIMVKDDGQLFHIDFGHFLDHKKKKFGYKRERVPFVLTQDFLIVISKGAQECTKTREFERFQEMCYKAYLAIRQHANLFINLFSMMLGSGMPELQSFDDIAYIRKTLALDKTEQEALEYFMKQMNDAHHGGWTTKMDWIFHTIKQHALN
Sequence of PI3Kalpha (P27986 whole entry partner, canonical isoform): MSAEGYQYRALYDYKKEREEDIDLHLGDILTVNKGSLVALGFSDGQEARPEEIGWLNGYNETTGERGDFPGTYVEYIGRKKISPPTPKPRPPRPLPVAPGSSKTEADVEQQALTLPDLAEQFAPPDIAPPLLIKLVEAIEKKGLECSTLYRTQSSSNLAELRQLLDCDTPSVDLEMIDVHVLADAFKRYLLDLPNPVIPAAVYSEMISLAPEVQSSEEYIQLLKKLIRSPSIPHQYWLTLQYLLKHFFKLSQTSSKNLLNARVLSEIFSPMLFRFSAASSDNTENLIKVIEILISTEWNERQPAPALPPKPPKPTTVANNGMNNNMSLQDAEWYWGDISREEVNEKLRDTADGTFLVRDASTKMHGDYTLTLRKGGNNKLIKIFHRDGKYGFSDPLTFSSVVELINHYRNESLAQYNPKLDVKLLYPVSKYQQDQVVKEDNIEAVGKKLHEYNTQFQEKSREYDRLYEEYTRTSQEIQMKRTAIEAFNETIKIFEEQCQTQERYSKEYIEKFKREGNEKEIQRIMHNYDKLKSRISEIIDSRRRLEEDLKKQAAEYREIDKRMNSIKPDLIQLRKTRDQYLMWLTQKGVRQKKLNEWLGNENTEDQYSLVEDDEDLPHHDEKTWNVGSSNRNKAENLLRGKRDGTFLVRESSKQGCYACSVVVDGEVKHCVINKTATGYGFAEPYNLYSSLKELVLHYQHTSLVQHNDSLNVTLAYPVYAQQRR

Sequence of PI3Kdelta (O00329 whole entry, canonical isoform): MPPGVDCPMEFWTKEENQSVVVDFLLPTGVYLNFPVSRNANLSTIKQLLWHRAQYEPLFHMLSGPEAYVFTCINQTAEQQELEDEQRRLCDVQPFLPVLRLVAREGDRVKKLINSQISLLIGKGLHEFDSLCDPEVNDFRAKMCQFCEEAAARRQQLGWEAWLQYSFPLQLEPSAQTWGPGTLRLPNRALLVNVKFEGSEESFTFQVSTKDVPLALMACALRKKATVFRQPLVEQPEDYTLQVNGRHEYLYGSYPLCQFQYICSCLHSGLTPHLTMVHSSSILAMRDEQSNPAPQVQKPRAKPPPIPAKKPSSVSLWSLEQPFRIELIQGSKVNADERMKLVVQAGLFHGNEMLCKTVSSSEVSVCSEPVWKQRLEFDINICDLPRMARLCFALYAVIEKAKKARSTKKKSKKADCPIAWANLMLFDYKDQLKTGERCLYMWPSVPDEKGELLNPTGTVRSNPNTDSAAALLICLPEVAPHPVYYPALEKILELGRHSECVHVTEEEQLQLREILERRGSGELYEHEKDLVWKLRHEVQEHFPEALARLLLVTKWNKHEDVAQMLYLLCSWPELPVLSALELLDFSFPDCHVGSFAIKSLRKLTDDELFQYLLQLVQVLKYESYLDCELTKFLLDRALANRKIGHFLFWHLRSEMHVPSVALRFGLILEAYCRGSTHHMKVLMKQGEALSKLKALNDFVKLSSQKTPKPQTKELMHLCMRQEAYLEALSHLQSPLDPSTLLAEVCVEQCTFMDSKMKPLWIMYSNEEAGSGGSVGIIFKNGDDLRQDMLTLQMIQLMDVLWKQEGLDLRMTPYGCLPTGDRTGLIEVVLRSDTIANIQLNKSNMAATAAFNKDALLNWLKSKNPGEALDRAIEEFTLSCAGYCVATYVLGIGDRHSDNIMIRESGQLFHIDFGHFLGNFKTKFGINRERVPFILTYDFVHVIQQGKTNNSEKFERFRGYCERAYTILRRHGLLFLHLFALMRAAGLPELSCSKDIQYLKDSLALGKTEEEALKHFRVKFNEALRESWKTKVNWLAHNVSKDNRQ
Sequence of PI3Kdelta (P27986 whole entry partner, canonical isoform): as the sequence (P27986 whole entry partner, canonical isoform) above

| IC50 (PI3Kdelta) | Relative Selectivity versus PI3Kalpha (PI3Kalpha) | SMILES |
| --- | --- | --- |
| 4 nM | >10 | CCn1c(-c2cnc(C)nc2)nc2c(-c3ccc4c(c3)C3(CCCN3S(=O)(=O)C(F)(F)F)C(=O)N4)ncnc21 (single isomer, unassigned) [Compound 3-22, (R or S)-5-(9-ethyl-8-(2-methylpyrimidin-5-yl)-9H-purin-6-yl)-1′-((trifluoromethyl)sulfonyl)spiro[indoline-3,2′-pyrrolidine]-2-one] |
| 6 nM | >10 | CCn1c(-c2cnc(C)nc2)nc2c(-c3ccc4c(c3)C3(CCCN3S(C)(=O)=O)C(=O)N4C)ncnc21 (single isomer, unassigned) [Compound 3-23, (R or S)-5-(9-ethyl-8-(2-methylpyrimidin-5-yl)-9H-purin-6-yl)-1-methyl-1′-(methylsulfonyl)spiro[indoline-3,2′-pyrrolidin]-2-one] |
| 32 nM | >10 | CCn1c(-c2cnc(C)nc2)nc2c(-c3ccc4c(c3)C3(CCCN3S(C)(=O)=O)C(=O)N4C)ncnc21 (single isomer, unassigned) [Compound 3-24, (R or S)-5-(9-ethyl-8-(2-methylpyrimidin-5-yl)-9H-purin-6-yl)-1-methyl-1′-(methylsulfonyl)spiro[indoline-3,2′-pyrrolidin]-2-one] |
| 29 nM | >10 | CCN1CCCC12C(=O)Nc1ccc(-c3ncnc4c3nc(-c3cnc(C)nc3)n4CC)cc12 (single isomer, unassigned) [Compound 3-26, (R or S)-1′-ethyl-5-(9-ethyl-8-(2-methylpyrimidin-5-yl)-9H-purin-6-yl)spiro[indoline-3,2′-pyrrolidin]-2-one] |
| 9 nM | >10 | CCN1CCCC12C(=O)Nc1ccc(-c3ncnc4c3nc(-c3cnc(C)nc3)n4CC)cc12 (single isomer, unassigned) [Compound 3-27, (R or S)-1′-ethyl-5-(9-ethyl-8-(2-methylpyrimidin-5-yl)-9H-purin-6-yl)spiro[indoline-3,2′-pyrrolidin]-2-one] |
| 99 nM | >10 | CCN1CCCC12C(=O)Nc1ccc(-c3ncnc4c3nc(-c3cnc(C)nc3)n4C)cc12 (single isomer, unassigned) [Compound 3-28, (R or S)-1′-ethyl-5-(9-methyl-8-(2-methylpyrimidin-5-yl)-9H-purin-6-yl)spiro[indoline-3,2′-pyrrolidin]-2-one] |
| 15 nM | >10 | CCN1CCCC12C(=O)Nc1ccc(-c3ncnc4c3nc(-c3cnc(C)nc3)n4C)cc12 (single isomer, unassigned) [Compound 3-29, (R or S)-1′-ethyl-5-(9-methyl-8-(2-methylpyrimidin-5-yl)-9H-purin-6-yl)spiro[indoline-3,2′-pyrrolidin]-2-one] |
| 156 nM | 5 | CCn1c(-c2cnc(C)nc2)nc2c(-c3ccc4c(c3)C3(CCCO3)C(=O)N4)ncnc21 (single isomer, unassigned) [Compound 3-30, (R or S)-5′-(9-ethyl-8-(2-methylpyrimidin-5-yl)-9H-purin-6-yl)-4,5-dihydro-3H-spiro[furan-2,3′-indolin]-2′-one] |
| 99 nM | >10 | CCn1c(-c2cnc(C)nc2)nc2c(-c3ccc4c(c3)C3(CCCO3)C(=O)N4)ncnc21 (single isomer, unassigned) [Compound 3-31, (R or S)-5′-(9-ethyl-8-(2-methylpyrimidin-5-yl)-9H-purin-6-yl)-4,5-dihydro-3H-spiro[furan-2,3′-indolin]-2′-one] |
| 169 nM | >10 | CCn1c(-c2cnc(C)nc2)nc2c(-c3ccc4c(c3)C3(CCCN3)C(=O)N4)ncnc21 (single isomer, unassigned) [Compound 3-32, (R or S)-5-(9-ethyl-8-(2-methylpyrimidin-5-yl)-9H-purin-6-yl)spiro[indoline-3,2′-pyrrolidin]-2-one] |
| 67 nM | >10 | CCn1c(-c2cnc(C)nc2)nc2c(-c3ccc4c(c3)C3(CCCN3)C(=O)N4)ncnc21 (single isomer, unassigned) [Compound 3-33, (R or S)-5-(9-ethyl-8-(2-methylpyrimidin-5-yl)-9H-purin-6-yl)spiro[indoline-3,2′-pyrrolidin]-2-one] |
| 14 nM | >10 | CCn1c(-c2cnc(C)nc2)nc2c(-c3ccc4c(c3)C3(CCN(C(C)C)C3)C(=O)N4)ncnc21 (single isomer, unassigned) [Compound 3-35, (R or S)-5-(9-ethyl-8-(2-methylpyrimidin-5-yl)-9H-purin-6-yl)-1′-isopropylspiro[indoline-3,3′-pyrrolidin]-2-one] |
| 26 nM | >10 | CCn1c(-c2cnc(C)nc2)nc2c(-c3ccc4c(c3)C3(CCN(C(C)C)C3)C(=O)N4)ncnc21 (single isomer, unassigned) [Compound 3-36, (R or S)-5-(9-ethyl-8-(2-methylpyrimidin-5-yl)-9H-purin-6-yl)-1′-isopropylspiro[indoline-3,3′-pyrrolidin]-2-one] |
| 97 nM | 2 | CCn1c(-c2cnc(C)nc2)nc2c(-c3ccc4c(c3)C(Cc3ccccc3)OC(=O)N4)ncnc21 (single isomer, unassigned) [Compound 4-1, (R or S)-4-benzyl-6-[9-ethyl-8-(2-methylpyrimidin-5-yl)-9H-purin-6-yl]-1,4-dihydro-2H-3,1-benzoxazin-2-one] |
| 35 nM | >10 | CCn1c(-c2cnc(C)nc2)nc2c(-c3ccc4c(c3)C(Cc3ccccc3)OC(=O)N4)ncnc21 (single isomer, unassigned) [Compound 4-2, (R or S)-4-benzyl-6-[9-ethyl-8-(2-methylpyrimidin-5-yl)-9H-purin-6-yl]-1,4-dihydro-2H-3,1-benzoxazin-2-one] |
| 59 nM | 6 | CCn1c(-c2cnc(C)nc2)nc2c(-c3ccc4c(c3)C(C)(CC(C)C)OC(=O)N4)ncnc21 (single isomer, unassigned) [Compound 4-3, (R or S)-6-[9-ethyl-8-(2-methylpyrimidin-5-yl)-9H-purin-6-yl]-4-methyl-4-(2-methylpropyl)-1,4-dihydro-2H-3,1-benzoxazin-2-one] |
| 4 nM | >10 | CCn1c(-c2cnc(C)nc2)nc2c(-c3ccc4c(c3)C(C)(CC(C)C)OC(=O)N4)ncnc21 (single isomer, unassigned) [Compound 4-4, (R or S)-6-[9-ethyl-8-(2-methylpyrimidin-5-yl)-9H-purin-6-yl]-4-methyl-4-(2-methylpropyl)-1,4-dihydro-2H-3,1-benzoxazin-2-one] |
| 6 nM | >10 | CCn1c(-c2cnc(C)nc2)nc2c(-c3ccc4c(c3)C(C)(CC(C)C)NS4(=O)=O)ncnc21 (single isomer, unassigned) [Compound 4-5, (R or S)-9-ethyl-6-[3-methyl-3-(2-methylpropyl)-1,1-dioxido-2,3-dihydro-1,2-benzisothiazol-5-yl]-8-(2-methylpyrimidin-5-yl)-9H-purine] |
| 55 nM | >10 | CCn1c(-c2cnc(C)nc2)nc2c(-c3ccc4c(c3)C(C)(CC(C)C)NS4(=O)=O)ncnc21 (single isomer, unassigned) [Compound 4-6, (R or S)-9-ethyl-6-[3-methyl-3-(2-methylpropyl)-1,1-dioxido-2,3-dihydro-1,2-benzisothiazol-5-yl]-8-(2-methylpyrimidin-5-yl)-9H-purine] |
| 7 nM | >10 | CCn1c(-c2cnc(C)nc2)nc2c(-c3ccc4c(c3)C(C)(CC(C)C)NC4=O)ncnc21 (single isomer, unassigned) [Compound 4-7, (R or S)-5-[9-ethyl-8-(2-methylpyrimidin-5-yl)-9H-purin-6-yl]-3-methyl-3-(2-methylpropyl)-2,3-dihydro-1H-isoindol-1-one] |
| 128 nM | >10 | CCn1c(-c2cnc(C)nc2)nc2c(-c3ccc4c(c3)C(C)(CC(C)C)NC4=O)ncnc21 (single isomer, unassigned) [Compound 4-8, (R or S)-5-[9-ethyl-8-(2-methylpyrimidin-5-yl)-9H-purin-6-yl]-3-methyl-3-(2-methylpropyl)-2,3-dihydro-1H-isoindol-1-one] |
| 22 nM | >10 | CCn1c(-c2cnc(C)nc2)nc2c(-c3ccc4c(c3)C(Cc3ccccc3)NC4=O)ncnc21 (single isomer, unassigned) [Compound 4-9, (R or S)-3-benzyl-5-[9-ethyl-8-(2-methylpyrimidin-5-yl)-9H-purin-6-yl]-2,3-dihydro-1H-isoindol-1-one] |
| 14 nM | >10 | CCn1c(-c2cnc(C)nc2)nc2c(-c3ccc4c(c3)C(C)(Cc3ccccc3)N(C)C4=O)ncnc21 (single isomer, unassigned) [Compound 4-12, (R or S)-3-benzyl-5-[9-ethyl-8-(2-methylpyrimidin-5-yl)-9H-purin-6-yl]-2,3-dimethyl-2,3-dihydro-1H-isoindol-1-one] |
| 14 nM | >10 | CCn1c(-c2cnc(C)nc2)nc2c(-c3ccc4oc(=O)n(C(C)c5ccccc5)c4c3)ncnc21 (single isomer, unassigned) [Compound 5-1, (R or S)-5-[9-ethyl-8-(2-methylpyrimidin-5-yl)-9H-purin-6-yl]-3-(1-phenylethyl)-1,3-benzoxazol-2(3H)-one] |
| 37 nM | >10 | CCn1c(-c2cnc(C)nc2)nc2c(-c3ccc4oc(=O)n(C(C)c5ccccc5)c4c3)ncnc21 (single isomer, unassigned) [Compound 5-2, (R or S)-5-[9-ethyl-8-(2-methylpyrimidin-5-yl)-9H-purin-6-yl]-3-(1-phenylethyl)-1,3-benzoxazol-2(3H)-one] |

Reference: patent US10544147B2, “Purine inhibitors of human phosphatidylinositol 3-kinase delta” (MERCK SHARP & DOHME CORP., priority 2016, dated 2020)
